From publication PMC5903342 (Oxidative Medicine and Cellular Longevity, 2018)
Where two headings read alike, the source gives them in different places. Blank lines part the entries; values can stand above or below the compound they belong to.

Tests used:
[1] = test system: Salmonella enterica serovar typhimurium TA102; experiment: Antimutagenicity assay (Salmonella/microsome), strain TA102; format: cell-based; settings: atorvastatin 0 μM
Description: (§1) Salmonella enterica serovar typhimurium (S. typhimurium) strains TA100, TA1535, TA104, and TA102 from the authors' laboratory stock were used as described by Maron and Ames in the antimutagenicity assay.
(§2) We carried out the coexposure protocol of the antimutagenicity assay to investigate the potential of the compound to protect against alkylation-mediated genetic mutation in S. typhimurium TA100, TA102, TA104, and TA1535 strains according to Ajith and Soja. The test proceeded both in the absence and presence of a metabolic activation system (4% S9 mix, Aroclor preinduced, from MOLTOX Inc., USA). DMSO 1% served as the negative control. […] The mixtures were incubated in a shaker at 37°C (preincubation) under light protection. After a total of 60 min of cotreatment, the mixtures were added to and mixed with 2 mL top agar containing 0.05 mmol/L L-histidine and D-biotin for the S. typhimurium strains. Each of these was then spread on a minimal glucose agar (1.5% agar, Vogel-Bonner medium E, containing 2% glucose) plate. After the top agar solidified, the plates were incubated at 37°C for 60–72 h. Each tester strain was assayed in triplicate and repeated at least twice, and the number of revertant colonies was counted for each tester strain and treatment group. The counts of revertant colonies were obtained to build a dose-response curve and calculate the percentage of reduction.

[2] = test system: Salmonella enterica serovar typhimurium TA100; experiment: Antimutagenicity assay (Salmonella/microsome), strain TA100 (co-, pre- and posttreatment); format: cell-based; settings: atorvastatin 0 μM
HepG2 cells [3] = experiment: Flow cytometry cell cycle analysis; format: cell-based, Human; settings: 24 h
Method: The cells (1 × 10^5) were washed in PBS solution and centrifuged at 400 ×g for 5 min, and after, the cells were suspended in DNA staining solution (0.3% Triton X-100 and 50 μg/mL propidium iodide (PI) in a 43 mM citrate buffer), as previously described. After 45 minutes of treatment with 50 μg/mL ribonuclease A (Sigma, EUA), the PI fluorescence was determined (10,000 events per sample) in a Gallios flow cytometer (Beckman Coulter, USA). Data were analyzed by the Summit v4.3 software. The experiments were done at least three times, and statistical analysis was performed by one-way ANOVA followed by a Tukey's post hoc test.

[4] = test system: Salmonella enterica serovar typhimurium TA104; experiment: Antimutagenicity assay (Salmonella/microsome), strain TA104; format: cell-based; settings: atorvastatin 0 μM
Description: as §1, §2

[5] = test system: Salmonella enterica serovar typhimurium TA1535; experiment: Antimutagenicity assay (Salmonella/microsome), strain TA1535; format: cell-based; settings: atorvastatin 0 μM
Description: as §1, §2

in vitro = format: cell-based; settings: human, HepG2, 24 h of exposure
Method: (§3) Human hepatocellular carcinoma cells (HepG2) obtained from the American Type Culture Collection (Manassas, VA) were cultured in a minimum Eagle's medium (MEM, Gibco®, USA) containing 10% fetal bovine serum (FBS) plus 100 μg/mL streptomycin and 100 μg/mL penicillin at 37°C in a 5% CO2 atmosphere. Logarithmic-phase cells were used in all the experiments [9].
Fresh HepG2 cells were seeded at a density of 1 × 10^5/well.

HepG2 cells [6] = test system: HepG2 cells
Method: as §3
The HepG2 cells were seeded at a density of 1 × 10^5/mL into 24-well plates (1 mL/well). […] DMSO 1% was used as the negative control. After exposure to the compounds, the cells were incubated for 24 h more and the cytogenetic studies were carried out in triplicate and N = 3 [14]. In order to determine the mitotic index and the number of cells with micronuclei, the medium was replaced by a cold methanol-glacial acetic acid (3 : 1) fixative for 30 min and the cells were then rinsed with distilled water for 2 min and air dried. […] To determine the mitotic index and the number of cells with micronuclei, 2000 cells per well (6000 cells per concentration) were analyzed using fluorescence microscopy (Reichert Univar) with an excitation wavelength of 350 nm. […] Statistical differences between the groups were analyzed by a one-way ANOVA (p < 0.01) and Tukey's post hoc test.

[7] = test system: Salmonella enterica serovar typhimurium TA98 and TA100 strains; settings: sodium azide or 4-nitro-o-phenylenediamine, TA98 and TA100, absence of metabolic activation; cited from earlier work
CHO-K1 cells = test system: CHO-K1 cells; design: method as in PMID 15988137; settings: statins from 10 μM to 100 μM; cited from earlier work
[8] = DPPH free radical scavenging assay; format: biochemical; settings: absorbance at 517 nm
Method: The free radical scavenging activity was measured by following microplate procedures as previously described. One hundred microliters of the sample dilutions with five concentration levels (varying from 0 to 2000 μM in DMSO) was added to two identical groups of wells in a 96-well microplate. The same volume of 0.1 mM DPPH-methanol solution was added to each well of one group (samples), and methanol ([…]) was added to the other group (blanks). The control was prepared by mixing the DPPH-methanol solution with the sample solvent or butylated hydroxytoluene (BHT). The solutions were mixed thoroughly, covered, and allowed to react in the dark at room temperature for 40 min. The absorbance was measured at 517 nm using a microplate reader (Quant, BioTek Instruments Inc.), and the scavenging activity was calculated from the absorbance values according to the following equation: […]. The antioxidant properties of the samples were expressed as half the maximal effective concentrations (EC50) obtained by interpolation from the linear regression analysis. BHT was used as the positive control.

[9] = TA100, cotreatment protocol, −S9, MMS (100 μM) only
[10] = TA100, posttreatment protocol, −S9, MMS (100 μM) only
[11] = TA100, pretreatment protocol, −S9, MMS (100 μM) only
[12] = TA100, cotreatment protocol, +S9, CPA (150 μM) only
[13] = TA100, posttreatment protocol, +S9, CPA (150 μM) only
[14] = TA100, pretreatment protocol, +S9, CPA (150 μM) only

Compound: COS(C)(=O)=O [MMS, methyl methanesulfonate]
His+ (revertant colonies) ([1]; TA102, −S9, MMS (100 μM) only): 578 ± 55
MI (mutagenicity index) ([1]; TA102, −S9, MMS (100 μM) only): 2.31
His+ (revertant colonies) [2, 9]: 212 ± 11
MI (mutagenicity index) [2, 9]: 2.14
His+ (revertant colonies) [2, 10]: 264 ± 31
MI (mutagenicity index) [2, 10]: 2.09
His+ (revertant colonies) [2, 11]: 230 ± 23
MI (mutagenicity index) [2, 11]: 2.26
polyploid subpopulation (HepG2 cells [3]; human, 20 μM): 15%
sub-G1 percentage of cells (HepG2 cells [3]; human, 20 μM): 19%
His+ (revertant colonies) ([4]; TA104, −S9, MMS (100 μM) only): 897 ± 55
MI (mutagenicity index) ([4]; TA104, −S9, MMS (100 μM) only): 2.24
His+ (revertant colonies) ([5]; TA1535, −S9, MMS (100 μM) only): 71 ± 5
MI (mutagenicity index) ([5]; TA1535, −S9, MMS (100 μM) only): 2.84
CC50 (in vitro; read-out: LC50 (the source's name)): 18.7 ± 6.67 µM
Micronucleus formation, fold in comparison to the negative control (HepG2 cells [6]; only MMS-exposed cells (10.0 μM MMS), 6 and 24 h): 6-7 fold

Compound: CC[C@H](C)C(=O)O[C@H]1C[C@@H](C)C=C2C=C[C@H](C)[C@H](CC[C@@H]3C[C@@H](O)CC(=O)O3)[C@H]21 [LOVA, lovastatin]
Antimutagenic (chemopreventive) effect against direct mutagens [7]: able to exert chemopreventive effects

Compound: CC(C)n1c(/C=C/C(O)CC(O)CC(=O)O)c(-c2ccc(F)cc2)c2ccccc21 (stereo not drawn) [fluvastatin]
Micronucleus formation after exposure to bleomycin (CHO-K1 cells): reduced micronucleus formation

Compound: CC[C@H](C)C(=O)O[C@H]1C[C@H](O)C=C2C=C[C@H](C)[C@H](CC[C@@H](O)C[C@@H](O)CC(=O)O)[C@H]21 [pravastatin]
Micronucleus formation after exposure to bleomycin (CHO-K1 cells): reduced micronucleus formation

Compound: O=P1(N(CCCl)CCCl)NCCCO1 (stereo not drawn) [CPA, cyclophosphamide]
His+ (revertant colonies) ([1]; TA102, +S9, CPA (150 μM) only): 588 ± 85
MI (mutagenicity index) ([1]; TA102, +S9, CPA (150 μM) only): 2.1
His+ (revertant colonies) [2, 12]: 239 ± 30
MI (mutagenicity index) [2, 12]: 2.13
His+ (revertant colonies) [2, 13]: 278 ± 33
MI (mutagenicity index) [2, 13]: 2.66
His+ (revertant colonies) [2, 14]: 244 ± 8
MI (mutagenicity index) [2, 14]: 2.44
sub-G1 percentage of cells (HepG2 cells [3]; CPA only (no AVA)): 17%
polyploid subpopulation (HepG2 cells [3]; exposure just to CPA): 13%
His+ (revertant colonies) ([4]; TA104, +S9, CPA (150 μM) only): 1092 ± 85
MI (mutagenicity index) ([4]; TA104, +S9, CPA (150 μM) only): 2.40
His+ (revertant colonies) ([5]; TA1535, +S9, CPA (150 μM) only): 56 ± 6
MI (mutagenicity index) ([5]; TA1535, +S9, CPA (150 μM) only): 2.80
CC50 at 24 h (in vitro; read-out: LC50): 98.7 ± 11.5 µM
Micronucleus formation, fold in comparison to the negative control (HepG2 cells [6]; 60.0 μM CPA only, 6 h and 24 h): 5-6 fold

EC50 [8]: 83 ± 2 µM
Compound: Cc1cc(C(C)(C)C)c(O)c(C(C)(C)C)c1 [BHT, butylated hydroxytoluene]
